Structures are written as SMILES. Where “and” joins values, the source holds several entries; their conditions need not be identical. Equal values may be shown once. Inconclusive results and toxic doses are left out. Peptide text beside a SMILES is read from it. * marks the point of attachment. Butyryl = CCCC(=O)*; Bn = c1ccc(C*)cc1

This assay concerns P388 leukemia ip, CD2F1 mice, survival T/C. Put plainly: NCI In Vivo Anticancer Drug Screen. Data for tumor model P388 Leukemia (intraperitoneal) in CD2F1 (CDF1) mice. To be noted: endpoint: median survival time, higher = longer survival. In a few lines: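 Mice carrying the transplanted tumor received test compound or vehicle. Survival was recorded in each group, and the value is the treated-group measurement divided by that of the vehicle-treated control group.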

Setting [1] is: dose: 100.0 mg/kg/injection, schedule: Q04DX003 (ip), vehicle: saline.
Setting [2] is: dose: 200.0 mg/kg/injection, schedule: Q04DX003 (ip), vehicle: saline.
[3] abbreviates: dose: 400.0 mg/kg/injection, schedule: Q04DX003 (ip), vehicle: saline.
The mark [4] stands for this setting: dose: 50.0 mg/kg/injection, schedule: Q01DX005 (ip), vehicle: saline with Tween-80.
Setting [5] is: dose: 100.0 mg/kg/injection, schedule: Q01DX005 (ip), vehicle: saline with Tween-80.
[6] abbreviates: dose: 200.0 mg/kg/injection, schedule: Q01DX005 (ip), vehicle: saline with Tween-80.
Where [7] appears, read: dose: 12.5 mg/kg/injection, schedule: Q01DX009 (ip), vehicle: saline with Tween-80.
[8] abbreviates: dose: 25.0 mg/kg/injection, schedule: Q01DX009 (ip), vehicle: saline with Tween-80.
Setting [9] is: dose: 50.0 mg/kg/injection, schedule: Q01DX009 (ip), vehicle: saline with Tween-80.
Setting [10] is: dose: 60.0 mg/kg/injection, schedule: Q01DX005 (ip), vehicle: saline with Tween-80.
[11] abbreviates: dose: 120.0 mg/kg/injection, schedule: Q01DX005 (ip), vehicle: saline with Tween-80.
The mark [12] stands for this setting: dose: 240.0 mg/kg/injection, schedule: Q01DX005 (ip), vehicle: saline with Tween-80.
Setting [13] is: dose: 100.0 mg/kg/injection, schedule: Q01DX009 (ip), vehicle: saline with Tween-80.
Setting [14] is: dose: 200.0 mg/kg/injection, schedule: Q01DX009 (ip), vehicle: saline with Tween-80.

`CCCSC(=S)Nc1nc2ccc(C)cc2s1`: the T/C by setting is: under setting [1], 100 % of control; under setting [2], 93 % of control; under setting [3], 101 % of control.
Turning to `NC(=O)CCS(=O)(=O)Cc1ccccc1`, the T/C was 98 % of control under setting [4], 95 % of control under setting [5] and 93 % of control under setting [6].
`CCCCC(CCC)(CCN)CCCC`: the T/C runs as follows: (dose: 3.0 mg/kg/injection, schedule: Q01DX009 (ip), vehicle: saline) 95 % of control; (dose: 6.0 mg/kg/injection, schedule: Q01DX009 (ip), vehicle: saline) 100 % of control; (dose: 12.0 mg/kg/injection, schedule: Q01DX009 (ip), vehicle: saline) 104 % of control.
As to `O=C(N/N=C\c1ccc(N(CCCl)CCCl)cc1)c1cccnc1`, the T/C (dose: 12.5 mg/kg/injection, schedule: Q01DX009 (ip), vehicle: Klucel (hydroxypropylcellulose) (HPC)) is 107 % of control and the T/C (dose: 25.0 mg/kg/injection, schedule: Q01DX009 (ip), vehicle: Klucel (hydroxypropylcellulose) (HPC)) is 107 % of control.
For `CCCC1(CCC)c2ccccc2C(Cl)(CCl)c2ccccc21`, the T/C (dose: 12.5 mg/kg/injection, schedule: Q01DX009 (ip), vehicle: other) was 103 % of control; the T/C (dose: 25.0 mg/kg/injection, schedule: Q01DX009 (ip), vehicle: other) is 106 % of control; the T/C (dose: 50.0 mg/kg/injection, schedule: Q01DX009 (ip), vehicle: other) was 109 % of control; the T/C (dose: 100.0 mg/kg/injection, schedule: Q01DX009 (ip), vehicle: other) is 107 % of control; the T/C (dose: 200.0 mg/kg/injection, schedule: Q01DX009 (ip), vehicle: other) was 109 % of control.
Consider `Cc1ccc(S(=O)(=O)/N=[Se](\C)c2ccccc2)cc1` (centres undefined), for which the T/C is, setting by setting: (dose: 0.79 mg/kg/injection, schedule: Q01DX009 (ip), vehicle: saline) 95 % of control; (dose: 1.56 mg/kg/injection, schedule: Q01DX009 (ip), vehicle: saline) 97 % of control; (dose: 3.12 mg/kg/injection, schedule: Q01DX009 (ip), vehicle: saline) 93 % of control and 97 % of control; under setting [7], 96 % of control; under setting [8], 96 % of control; under setting [9], 108 % of control. Besides, the T/C (dose: 50.0 mg/kg/injection, schedule: Q01DX009 (ip), vehicle: saline) is 114 % of control.
For the molecule `C=C(Cl)C(=NC(C)(C)C)Nc1ccccc1Cl`, the T/C by setting is: (dose: 6.25 mg/kg/injection, schedule: Q01DX005 (ip), vehicle: saline) 100 % of control; (dose: 12.5 mg/kg/injection, schedule: Q01DX005 (ip), vehicle: saline) 117 % of control; (dose: 25.0 mg/kg/injection, schedule: Q01DX005 (ip), vehicle: saline) 124 % of control; (dose: 50.0 mg/kg/injection, schedule: Q01DX005 (ip), vehicle: saline) 114 % of control and 120 % of control; (dose: 100.0 mg/kg/injection, schedule: Q01DX005 (ip), vehicle: saline) 118 % of control.
As to `COC(=O)C(C)NC(=O)C(C)NC(=O)c1ccc(OC)cc1` (centres undefined), the T/C is, setting by setting: (dose: 100.0 mg/kg/injection, schedule: Q04DX002 (ip), vehicle: saline with Tween-80) 105 % of control; (dose: 200.0 mg/kg/injection, schedule: Q04DX002 (ip), vehicle: saline with Tween-80) 99 % of control; (dose: 400.0 mg/kg/injection, schedule: Q04DX002 (ip), vehicle: saline with Tween-80) 91 % of control.
As to `COC(=O)c1nc(OC)nc(OC)c1C#CCOC1CCCCO1` (centres undefined), the T/C reads like this: (dose: 12.5 mg/kg/injection, schedule: Q01DX009 (ip), vehicle: distilled water + Tween-80) 92 % of control; (dose: 25.0 mg/kg/injection, schedule: Q01DX009 (ip), vehicle: distilled water + Tween-80) 108 % of control; (dose: 50.0 mg/kg/injection, schedule: Q01DX009 (ip), vehicle: distilled water + Tween-80) 94 % of control; (dose: 100.0 mg/kg/injection, schedule: Q01DX009 (ip), vehicle: distilled water + Tween-80) 94 % of control.
Regarding `CC1=NN(C2=NS(=O)(=O)c3ccccc3N2C)C(=O)C1`, the T/C is, setting by setting: under setting [10], 86 % of control; under setting [11], 90 % of control; under setting [12], 90 % of control.
For the molecule `CCn1c2ccccc2nc2cc3c(cc21)c(Cl)c(=O)c1ccccc13`, the T/C is 108 % of control under setting [9], 104 % of control under setting [13] and 98 % of control under setting [14].
In the case of `CCCC(=O)NC(CSCc1ccccc1)C(=O)NC(CCC(=O)OC)C(=O)OC` (centres undefined) (Butyryl-Cys(Bn)-Glu(OMe)-OMe; configuration not given here), the T/C is, setting by setting: under setting [9], 104 % of control; under setting [13], 104 % of control; under setting [14], 96 % of control.
Consider `CSc1c(C(C)(C)O)cc(C(C)(C)C)cc1C(C)(C)O`, for which the T/C was 93 % of control (dose: 50.0 mg/kg/injection, schedule: Q01DX009 (ip), vehicle: Klucel (hydroxypropylcellulose) (HPC)); 93 % of control (dose: 100.0 mg/kg/injection, schedule: Q01DX009 (ip), vehicle: Klucel (hydroxypropylcellulose) (HPC)); 94 % of control (dose: 200.0 mg/kg/injection, schedule: Q01DX009 (ip), vehicle: Klucel (hydroxypropylcellulose) (HPC)).
Consider `Cc1c(N=Nc2c(S(=O)(=O)O)cc3cc(S(=O)(=O)O)c(N=Nc4c(C)n(C)n(-c5ccccc5)c4=O)c(O)c3c2O)c(=O)n(-c2ccccc2)n1C`, for which the T/C reads like this: (dose: 60.0 mg/kg/injection, schedule: Q01DX005 (ip), vehicle: suspension in saline) 101 % of control; (dose: 120.0 mg/kg/injection, schedule: Q01DX005 (ip), vehicle: suspension in saline) 96 % of control; (dose: 240.0 mg/kg/injection, schedule: Q01DX005 (ip), vehicle: suspension in saline) 110 % of control.
As for `Cc1c(-c2ccccc2)sc(/N=C/c2cc(Br)cc(Br)c2O)c1C#N`, the T/C is 99 % of control under setting [7], 98 % of control under setting [8], 100 % of control under setting [9] and 99 % of control under setting [13].
On to `Cc1cc(N(CCCl)CCCl)ccc1C=Nc1ccccc1-c1ccccc1`, for which the T/C was 155 % of control (dose: 400.0 mg/kg/injection, schedule: Q01DX009 (ip), vehicle: Klucel (hydroxypropylcellulose) (HPC)) and 170 % of control (dose: 600.0 mg/kg/injection, schedule: Q01DX009 (ip), vehicle: Klucel (hydroxypropylcellulose) (HPC)).
For the molecule `CN1C2C=C(c3ccccc3)CC1CC2` (centres undefined), the T/C was 94 % of control (dose: 0.75 mg/kg/injection, schedule: Q01DX005 (ip), vehicle: saline); 108 % of control (dose: 1.5 mg/kg/injection, schedule: Q01DX005 (ip), vehicle: saline); 105 % of control (dose: 1.56 mg/kg/injection, schedule: Q01DX005 (ip), vehicle: Klucel (hydroxypropylcellulose) (HPC)); 102 % of control (dose: 3.0 mg/kg/injection, schedule: Q01DX005 (ip), vehicle: saline); 103 % of control (dose: 3.12 mg/kg/injection, schedule: Q01DX005 (ip), vehicle: Klucel (hydroxypropylcellulose) (HPC)).
With `C(=N\NC1=NCCN1)/c1c[nH]c2ccccc12`, the T/C was 101 % of control under setting [4] and 97 % of control under setting [5].
For `[N-]=[N+]=CC(=O)C1OC1c1ccc2ccccc2c1` (centres undefined), the T/C (dose: 25.0 mg/kg/injection, schedule: Q01DX005 (ip), vehicle: saline with Tween-80) is 93 % of control; the T/C under setting [4] was 100 % of control; the T/C under setting [5] was 99 % of control; the T/C under setting [6] is 105 % of control.
On to `COc1cc(/C=C/C(=O)O)cc(OC)c1`, for which the T/C was 103 % of control (dose: 50.0 mg/kg/injection, schedule: Q01DX005 (ip), vehicle: Klucel (hydroxypropylcellulose) (HPC)); 103 % of control (dose: 100.0 mg/kg/injection, schedule: Q01DX005 (ip), vehicle: Klucel (hydroxypropylcellulose) (HPC)); 109 % of control (dose: 200.0 mg/kg/injection, schedule: Q01DX005 (ip), vehicle: Klucel (hydroxypropylcellulose) (HPC)).
Consider `O=C(COc1ccccc1)NC(=S)Nc1nccs1`, for which the T/C under setting [10] was 96 % of control, the T/C under setting [11] was 93 % of control and the T/C under setting [12] is 102 % of control.
Turning to `COc1ccc(C2C3C(=O)OCCOC(=O)C3C2c2ccc(OC)c(OC)c2)cc1OC` (centres undefined), the T/C reads like this: under setting [4], 99 % of control; under setting [5], 104 % of control; under setting [6], 99 % of control.
Regarding `COCC1(C)CCCC2(C)C3=C(CCC(O)C3)CCC12` (centres undefined), the T/C was 99 % of control under setting [1], 99 % of control under setting [2] and 97 % of control under setting [3].

The values are drawn from PubChem BioAssay AID330 (DTP/NCI, 2004).
